Source: patent US8148391B2 (Cephalon, Inc., priority 2006, dated 2012)
pIC50: −log10 of the molar value. Like-named read-outs stand apart in the source and are kept apart here.

Key:
[1] = target: T1, c-Met (cytoplasmic domain) (Homo sapiens, UniProt P08581); assay: c-Met Kinase Assay (same methods as for ALK, with modifications); type: biochemical
T1 construct: 10 ng/mL c-Met (cytoplasmic domain, Invitrogen Corporation #PV3143); purchased Invitrogen Corporation PV3143
How it was run: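 Europium-labeled PT66 antibody (Eu-N1) detects substrate phosphorylation on wells coated with phospholipase C-γ at 10 μg/mL. The kinase, the cytoplasmic domain of c-Met at 10 ng/mL, starts the reaction, which proceeds 15 minutes at 37° C.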

[2] = target: T2, baculovirus-expressed ALK (Homo sapiens, UniProt Q9UM73); assay: ALK Kinase Assay (ELISA-type, time-resolved fluorescence); type: biochemical
T2 construct: host or cells: baculovirus expression system
T2 sequence (Q9UM73 19-1620): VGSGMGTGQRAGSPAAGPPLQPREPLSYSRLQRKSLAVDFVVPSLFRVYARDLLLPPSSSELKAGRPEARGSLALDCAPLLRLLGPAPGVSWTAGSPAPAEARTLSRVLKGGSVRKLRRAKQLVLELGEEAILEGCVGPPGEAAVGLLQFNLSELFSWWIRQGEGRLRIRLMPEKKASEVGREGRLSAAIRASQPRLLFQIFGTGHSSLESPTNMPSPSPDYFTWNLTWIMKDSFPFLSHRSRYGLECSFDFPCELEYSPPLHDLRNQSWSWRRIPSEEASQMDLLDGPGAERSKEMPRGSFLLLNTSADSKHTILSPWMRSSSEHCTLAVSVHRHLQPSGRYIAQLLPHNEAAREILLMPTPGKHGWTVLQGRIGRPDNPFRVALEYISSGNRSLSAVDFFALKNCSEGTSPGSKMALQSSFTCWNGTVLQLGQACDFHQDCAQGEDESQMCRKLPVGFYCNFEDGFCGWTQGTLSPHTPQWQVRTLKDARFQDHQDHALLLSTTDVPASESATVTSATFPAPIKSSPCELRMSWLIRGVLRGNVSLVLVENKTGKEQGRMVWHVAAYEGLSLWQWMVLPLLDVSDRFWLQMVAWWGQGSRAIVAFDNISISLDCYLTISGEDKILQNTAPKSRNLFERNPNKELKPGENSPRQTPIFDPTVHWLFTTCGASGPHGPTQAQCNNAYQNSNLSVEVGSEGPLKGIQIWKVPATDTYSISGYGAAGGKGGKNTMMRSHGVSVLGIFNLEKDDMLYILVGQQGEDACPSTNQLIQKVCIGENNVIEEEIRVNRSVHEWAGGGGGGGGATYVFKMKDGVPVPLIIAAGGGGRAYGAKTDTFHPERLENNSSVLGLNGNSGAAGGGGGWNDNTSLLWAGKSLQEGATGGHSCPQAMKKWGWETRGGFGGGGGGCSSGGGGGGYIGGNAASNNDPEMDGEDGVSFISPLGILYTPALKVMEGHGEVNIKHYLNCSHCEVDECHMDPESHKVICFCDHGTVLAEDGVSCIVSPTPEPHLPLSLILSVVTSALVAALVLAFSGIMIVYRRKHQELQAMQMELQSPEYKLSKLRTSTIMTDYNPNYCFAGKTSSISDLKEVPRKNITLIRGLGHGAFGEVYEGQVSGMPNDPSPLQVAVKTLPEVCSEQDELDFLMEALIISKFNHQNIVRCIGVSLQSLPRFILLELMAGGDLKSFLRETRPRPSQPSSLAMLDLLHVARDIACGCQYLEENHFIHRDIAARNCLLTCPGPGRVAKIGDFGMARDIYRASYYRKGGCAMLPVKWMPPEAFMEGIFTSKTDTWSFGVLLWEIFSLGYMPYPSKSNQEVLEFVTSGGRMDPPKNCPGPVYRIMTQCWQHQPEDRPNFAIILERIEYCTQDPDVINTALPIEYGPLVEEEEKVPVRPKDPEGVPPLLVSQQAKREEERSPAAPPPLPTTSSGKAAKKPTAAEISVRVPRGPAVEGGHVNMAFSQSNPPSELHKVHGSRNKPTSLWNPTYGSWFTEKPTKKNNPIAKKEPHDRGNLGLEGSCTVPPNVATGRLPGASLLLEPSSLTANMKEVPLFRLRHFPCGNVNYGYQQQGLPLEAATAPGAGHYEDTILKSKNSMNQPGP
How it was run: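 Plates coated with phospholipase C-γ substrate (10 μg/mL in TBS); reaction started with 30 ng/ml ALK and run 15 min at 37° C. Phosphorylated substrate detected with Eu-N1-labeled PT66 antibody. IC50 from sigmoidal variable-slope fit of percent inhibition vs log concentration.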

[3] = c-Met kinase inhibition, 1 μM ATP, read-out: cMet Activity
[4] = ALK kinase inhibition, 1 μM ATP, read-out: ALK Activity
[5] = 1 μM ATP (Km level), 10 ng/mL c-Met, read-out: cMet Activity (c-Met kinase inhibition, IC50 class)
[6] = 1 μM ATP (Km level), 30 ng/ml ALK, 37° C., 15 minutes, read-out: ALK Activity (ALK kinase inhibition, IC50 class)

T1 sequence (P08581 956-1390 limits assumed): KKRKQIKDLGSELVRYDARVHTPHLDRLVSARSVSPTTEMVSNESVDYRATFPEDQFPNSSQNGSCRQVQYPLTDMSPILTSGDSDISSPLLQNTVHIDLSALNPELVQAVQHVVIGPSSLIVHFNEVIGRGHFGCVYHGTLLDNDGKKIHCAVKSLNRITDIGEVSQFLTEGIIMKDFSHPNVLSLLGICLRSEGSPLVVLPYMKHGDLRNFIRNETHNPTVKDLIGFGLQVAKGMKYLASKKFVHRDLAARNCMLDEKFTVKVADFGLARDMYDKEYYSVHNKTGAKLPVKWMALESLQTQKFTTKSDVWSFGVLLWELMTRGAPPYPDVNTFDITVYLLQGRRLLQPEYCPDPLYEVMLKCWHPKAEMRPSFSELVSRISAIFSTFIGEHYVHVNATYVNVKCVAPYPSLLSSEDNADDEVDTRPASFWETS

SMILES	pIC50 [1, 3]	pIC50 [2, 4]	pIC50 [1, 5]	pIC50 [2, 6]	other results
C#CCNC(=O)c1cccc(F)c1Nc1nc(Nc2ccc3c(c2)N(C(C)=O)CCCC3)ncc1Cl [Example 1490, 2-[2-(1-Acetyl-2,3,4,5-tetrahydro-1H-benzo[b]azepin-8-ylamino)-5-chloro-pyrimidin-4-ylamino]-3-fluoro-N-prop-2-ynyl-benzamide]	> 7.00	6.00 to 7.00			
CNC(=O)c1ccc2c(c1Nc1nc(Nc3ccc4c(c3)CCN(CCOC)CC4)ncc1Cl)OCO2 [Example 1480, 4-{5-Chloro-2-[3-(2-methoxy-ethyl)-2,3,4,5-tetrahydro-1H-benzo[d]azepin-7-ylamino]-pyrimidin-4-ylamino}-benzo[1,3]dioxole-5-carboxylic acid methylamide]	5.00 to 6.00	6.00 to 7.00			
CNC(=O)c1cc(F)cc(F)c1Nc1nc(Nc2ccc3c(c2)N(C(C)=O)CCCC3(C)C)ncc1Cl [Example 1608, 2-[2-(1-Acetyl-5,5-dimethyl-2,3,4,5-tetrahydro-1H-benzo[b]azepin-8-ylamino)-5-chloro-pyrimidin-4-ylamino]-3,5-difluoro-N-methyl-benzamide]	> 7.00	6.00 to 7.00			
COc1cc2c(cc1Nc1ncc(Cl)c(Nc3ccccc3-n3cccn3)n1)CCC(NCC(F)F)CC2 (centres unmarked) [Example 1059, 5-Chloro-N*2*-[7-(2,2-difluoro-ethylamino)-3-methoxy-6,7,8,9-tetrahydro-5H-benzocyclohepten-2-yl]-N*4*-(2-pyrazol-1-yl-phenyl)-pyrimidine-2,4-diamine]			< 5.00	> 7.00	
CN1C(=O)CCCc2cc(Nc3ncc(Cl)c(Nc4ccc(N5CCCCC5)cc4C(N)=O)n3)ccc21 [Example 354, 2-[5-Chloro-2-(1-methyl-2-oxo-2,3,4,5-tetrahydro-1H-benzo[b]azepin-7-ylamino)-pyrimidin-4-ylamino]-5-piperidin-1-yl-benzamide]					pIC50 ([1]; c-Met kinase inhibition, 1 μM ATP (Km level), read-out: cMet Activity): > 7.00; pIC50 ([2]; ALK kinase inhibition, 1 μM ATP (Km level), read-out: ALK Activity): > 7.00
COc1cc2c(cc1Nc1ncc(Cl)c(Nc3ccccc3-c3nccn3C)n1)CCN(CC(=O)N(C)C)CC2 [Example 999, 2-(7-{5-Chloro-4-[2-(1-methyl-1H-imidazol-2-yl)-phenylamino]-pyrimidin-2-ylamino}-8-methoxy-1,2,4,5-tetrahydro-benzo[d]azepin-3-yl)-N,N-dimethyl-acetamide]					pIC50 ([1]; 1 μM ATP (Km level), read-out: cMet Activity (c-Met Kinase Inhibition, IC50)): < 5.00; pIC50 ([2]; 1 μM ATP (Km level), read-out: ALK Activity (ALK Kinase Inhibition, IC50)): > 7.00

The next lines start with results.

pIC50 [1, 3]	pIC50 [2, 4]	pIC50 [1, 5]	pIC50 [2, 6]	SMILES	other results
		< 5.00	6.00 to 7.00	CCN1C(=O)CCCc2c1ccc(Nc1ncc(Cl)c(Nc3ccc(N(C)C)cc3OC)n1)c2OC [Example 1339, 7-[5-Chloro-4-(4-dimethylamino-2-methoxy-phenylamino)-pyrimidin-2-ylamino]-1-ethyl-6-methoxy-1,3,4,5-tetrahydro-benzo[b]azepin-2-one]	
		< 5.00	6.00 to 7.00	COc1ccc2c(c1Nc1ncc(Cl)c(Nc3ccccc3S(=O)(=O)N(C)C)n1)CCC(N1CCOCC1)CC2 (centres unmarked) [Example 1072, 2-[5-Chloro-2-(2-methoxy-7-morpholin-4-yl-6,7,8,9-tetrahydro-5H-benzocyclohepten-1-ylamino)-pyrimidin-4-ylamino]-N,N-dimethyl-benzenesulfonamide]	
		< 5.00	> 7.00	CNC(=O)c1ccccc1Nc1nc(Nc2cc3c(cc2OC)CC(=O)N(CCCN2CCOCC2)CC3)ncc1Cl [Example 1126, 2-{5-Chloro-2-[8-methoxy-3-(3-morpholin-4-yl-propyl)-2-oxo-2,3,4,5-tetrahydro-1H-benzo[d]azepin-7-ylamino]-pyrimidin-4-ylamino}-N-methyl-benzamide]	
		6.00 to 7.00	> 7.00	CC1(C)CCC(=O)Nc2ccc(Nc3ncc(Cl)c(Nc4c(F)cccc4C(=O)NCCC#N)n3)cc21 [Example 1041, 2-[5-Chloro-2-(5,5-dimethyl-2-oxo-2,3,4,5-tetrahydro-1H-benzo[b]azepin-7-ylamino)-pyrimidin-4-ylamino]-N-(2-cyano-ethyl)-3-fluoro-benzamide]	
